Data set [1] in a line: Molar enthalpy of transition or fusion. The following applies: Crystal; DSC.
The conditions of data set [2]: Crystal; DTA.

± gives the expanded uncertainty stated by the source.

With `Clc1ccc(C(c2ccccc2Cl)C(Cl)Cl)cc1` (configuration not stated) [1,1-dichloro-2-(2-chlorophenyl)-2-(4-chlorophenyl)ethane], the “Molar enthalpy of transition or fusion” value in data set [1] was found to be 6.77 ± 0.201 kcal/mol. Besides, the Normal melting temperature in data set [2] turned out to be 80.00 ± 0.5 °C.

For the origin of these results see the NIST ThermoML archive (doi:10.1016/j.jct.2009.08.017).
